Columns and labels:
Z-138 cells = test: Z-138 Proliferation Assay (Cell Titer Glo, 5 days); assay type: cell-based; settings: Homo sapiens, 120 h
From the text: Z-138 Proliferation Assay
Z-138 suspension cells were purchased from ATCC (American Type Culture Collection, Manassas, Va.). RPMI/Glutamax medium, penicillin-streptomycin, heat inactivated fetal bovine serum were purchased from Life Technologies, Grand Island, N.Y., USA. V-bottom polypropylene 384-well plates were purchased from Greiner Bio-One, Monroe, N.C., USA. Cell culture 384-well white opaque plates were purchased from Perkin Elmer, Waltham, Mass., USA. Cell-Titer Glo® was purchased from Promega Corporation, Madison, Wis., USA. SpectraMax M5 plate reader was purchased from Molecular Devices LLC, Sunnyvale, Calif., USA.
Z-138 suspension cells were maintained in growth medium (RPMI 1640 supplemented with 10% v/v heat inactivated fetal bovine serum and cultured at 37° C. under 5% CO2 Under assay conditions, cells were incubated in assay medium (RPMI 1640 supplemented with 10% v/v heat inactivated fetal bovine serum and 100 units/mL penicillin-streptomycin) at 37° C. under 5% CO2.
For the assessment of the effect of compounds on the proliferation of the Z-138 cell line, exponentially growing cells were plated in 384-well white opaque plates at a density of 10,000 cells/ml in a final volume of 50 μl of assay medium. A compound source plate was prepared by performing triplicate nine-point 3-fold serial dilutions in DMSO, beginning at 10 mM (final top concentration of compound in the assay was 20 μM and the DMSO was 0.2%). A 100 nL aliquot from the compound stock plate was added to its respective well in the cell plate. […] After addition of compounds, assay plates were incubated for 5 days at 37° C., 5% CO2, relative humidity>90%.
Cell viability was measured by quantitation of ATP present in the cell cultures, adding 35 μl of Cell Titer Glo® reagent to the cell plates. Luminescence was read in the SpectraMax M5 microplate reader. The concentration of compound inhibiting cell viability by 50% was determined using a 4-parametric fit of the normalized dose response curves.

PRMT5/MEP50 = target: T1, PRMT5/MEP50 (Homo sapiens, UniProt O14744); test: PRMT5 Biochemical Assay (PRMT5/MEP50 enzyme assay on peptide substrate, 3H-SAM Flashplate)
T1 construct: Flag-PRMT5; 6His-MEP50
T1 sequence (O14744 with tags, fused parts or gaps): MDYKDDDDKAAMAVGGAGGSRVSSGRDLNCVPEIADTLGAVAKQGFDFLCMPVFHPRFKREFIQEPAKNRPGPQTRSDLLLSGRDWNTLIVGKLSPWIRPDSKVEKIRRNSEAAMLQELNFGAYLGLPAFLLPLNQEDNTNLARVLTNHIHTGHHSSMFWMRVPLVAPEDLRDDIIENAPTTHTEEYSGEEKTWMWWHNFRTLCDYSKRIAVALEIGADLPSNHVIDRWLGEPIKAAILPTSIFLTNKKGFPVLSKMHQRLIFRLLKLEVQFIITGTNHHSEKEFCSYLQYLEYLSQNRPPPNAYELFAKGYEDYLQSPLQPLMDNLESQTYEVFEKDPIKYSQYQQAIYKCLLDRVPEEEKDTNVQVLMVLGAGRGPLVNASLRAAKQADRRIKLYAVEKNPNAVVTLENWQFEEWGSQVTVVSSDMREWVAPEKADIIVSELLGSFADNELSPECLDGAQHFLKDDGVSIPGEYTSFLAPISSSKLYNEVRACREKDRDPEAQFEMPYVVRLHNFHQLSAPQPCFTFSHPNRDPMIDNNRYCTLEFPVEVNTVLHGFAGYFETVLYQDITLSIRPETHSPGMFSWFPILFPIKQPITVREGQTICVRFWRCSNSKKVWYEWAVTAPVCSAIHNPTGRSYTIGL
T1 sequence (Q9BQA1 with tags, fused parts or gaps partner): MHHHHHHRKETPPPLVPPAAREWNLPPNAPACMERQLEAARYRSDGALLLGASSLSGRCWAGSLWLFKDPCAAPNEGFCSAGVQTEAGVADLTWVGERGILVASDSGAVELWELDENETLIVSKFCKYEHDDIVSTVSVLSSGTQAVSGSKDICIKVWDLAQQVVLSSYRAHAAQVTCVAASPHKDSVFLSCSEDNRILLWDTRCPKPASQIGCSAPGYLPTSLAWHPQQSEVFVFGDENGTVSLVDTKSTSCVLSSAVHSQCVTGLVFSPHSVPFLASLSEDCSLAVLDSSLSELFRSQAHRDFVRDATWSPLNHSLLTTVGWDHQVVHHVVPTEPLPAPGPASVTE
In short: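 FLAG-PRMT5/His-MEP50 from Sf9 cells (4 nM) preincubated 30 min at 25 °C with compound in 20 mM Bicine pH 7.6, 1 mM TCEP, 1% DMSO. Reaction started with 75 nM 3H-SAM on 40 nM biotinylated H4 1-15 peptide, stopped with cold SAM. Bound 3H-peptide counted on streptavidin Flashplates, normalised to DMSO and 100 uM SAH controls.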

[1] = tested on: Symmetric di-Methyl Arginine in Z-138 cells; test: Z-138 Methylation Assay (In Cell Western for symmetric di-methyl arginine and DNA content); assay type: cell-based; settings: Homo sapiens, read-out: ICW EC50
From the text: Z-138 suspension cells were purchased from ATCC (American Type Culture Collection, Manassas, Va.). RPMI/Glutamax medium, penicillin-streptomycin, heat inactivated fetal bovine serum, and D-PBS were purchased from Life Technologies, Grand Island, N.Y., USA. Odyssey blocking buffer, 800CW goat anti-rabbit IgG (H+L) antibody, and Licor Odyssey infrared scanner were purchased from Licor Biosciences, Lincoln, Nebr., USA. Symmetric di-methyl arginine antibody was purchased from EMD Millipore, Billerica, Mass., USA. 16% Paraformaldehyde was purchased from Electron Microscopy Sciences, Hatfield, Pa., USA.
Z-138 suspension cells were maintained in growth medium (RPMI 1640 supplemented with 10% v/v heat inactivated fetal bovine serum and 100 units/mL penicillin-streptomycin) and cultured at 37° C. under 5% CO2 […]
Calculations: First, the ratio for each well was determined by:
Each plate included fourteen control wells of DMSO only treatment (minimum inhibition) as well as fourteen control wells for maximum inhibition treated with 3 μM of a reference compound (Background wells). The average of the ratio values for each control type was calculated and used to determine the percent inhibition for each test well in the plate. […] Percent inhibition was determined and IC50 curves were generated using triplicate wells per concentration of compound.

Row | Compound | EC50 (Z-138 cells) | IC50 (PRMT5/MEP50) | EC50 [1]
1 | Cn1cnc2ccc(-c3cccc(OCC(O)CN4CCc5ccccc5C4)c3)cc21 (centres unmarked) [Compound 45, 1-(3,4-dihydroisoquinolin-2(1H)-yl)-3-(3-(1-methyl-1H-benzo[d]imidazol-6-yl)phenoxy)propan-2-ol] | 1000 to 10000 nM |  | 
2 | OC(COc1cccc(-c2ccc3c(c2)OCO3)c1)CN1CCc2ccccc2C1 (centres unmarked) [Compound 59, 1-(3-(benzo[d][1,3]dioxol-5-yl)phenoxy)-3-(3,4-dihydroisoquinolin-2(1H)-yl)propan-2-ol] | 10000 to 40000 nM | 101 to 1000 nM | 
3 | OC(COc1cccc(-c2ccc3nn[nH]c3c2)c1)CN1CCc2ccccc2C1 (centres unmarked) [Compound 84, 1-(3-(1H-benzo[d][1,2,3]triazol-6-yl)phenoxy)-3-(3,4-dihydroisoquinolin-2(1H)-yl)propan-2-ol] | 1000 to 10000 nM | 101 to 1000 nM | 
4 | Cn1cnc2ccc(-c3ccnc(NCC(O)CN4CCc5ccccc5C4)c3)cc21 (centres unmarked) [Compound 118, 1-(3,4-Dihydroisoquinolin-2(1H)-yl)-3-((4-(1-methyl-1H-benzo[d]imidazol-6-yl)pyridin-2-yl)amino)propan-2-ol] | 1000 to 10000 nM |  | 
5 | OC(COc1cccc(-c2ccc3ncsc3c2)c1)CN1CCc2ccccc2C1 (centres unmarked) [Compound 123, 1-(3-(benzo[d]thiazol-6-yl)phenoxy)-3-(3,4-dihydroisoquinolin-2(1H)-yl)propan-2-ol] | 10000 to 40000 nM |  | 1000 to 10000 nM
6 | COC(=O)c1cccc(-c2cccc(OCC(O)CN3CCc4ccccc4C3)c2)c1 (centres unmarked) [Compound 135] | > 20000 nM | 101 to 1000 nM | 
7 | CN1CCN(c2ccc(-c3cccc(OCC(O)CN4CCc5ccccc5C4)c3)cn2)CC1 (centres unmarked) [Compound 149] | 1000 to 10000 nM | 101 to 1000 nM | 
8 | Cn1cnc2ccc(-c3cccc(OC[C@@H](O)CN4CCc5ccccc5C4)c3)cc21 [Compound 173] | 1000 to 10000 nM |  | 
9 | Cn1cnc2ccc(-c3cccc(OC[C@H](O)CN4CCc5ccccc5C4)c3)cc21 [Compound 174] | 1000 to 10000 nM |  | 
10 | COC(=O)c1cncc(-c2cccc(OCC(O)CN3CCc4ccccc4C3)c2)c1 (centres unmarked) [Compound 180] | > 20000 nM | 1000 to 10000 nM | 
11 | Cn1cnc2ccc(-c3cccc(OCC(O)CN4CCc5ccccc5C4)c3)nc21 (centres unmarked) [Compound 189, 1-(3,4-dihydroisoquinolin-2(1H)-yl)-3-(3-(3-methyl-3H-imidazo[4,5-b]pyridin-5-yl)phenoxy)propan-2-ol] | 101 to 1000 nM |  | 
12 | OC(COc1cccc(-c2ccc3ncn(C4CNC4)c3c2)c1)CN1CCc2ccccc2C1 (centres unmarked) [Compound 208, 1-(3-(1-(azetidin-3-yl)-1H-benzo[d]imidazol-6-yl)phenoxy)-3-(3,4-dihydroisoquinolin-2(1H)-yl)propan-2-ol] | 1000 to 10000 nM | 101 to 1000 nM | 
13 | CNC(=O)Cn1cnc2ccc(-c3cccc(OCC(O)CN4CCc5ccccc5C4)c3)cc21 (centres unmarked) [Compound 262] | 1000 to 10000 nM | 101 to 1000 nM | 
14 | O=C(Cn1cnc2ccc(-c3cccc(OCC(O)CN4CCc5ccccc5C4)c3)cc21)N1CCOCC1 (centres unmarked) [Compound 264] | 1000 to 10000 nM | 101 to 1000 nM | 
15 | Cc1ncc2ccc(-c3cccc(OCC(O)CN4CCc5ccccc5C4)c3)cn12 (centres unmarked) [Compound 266, 1-(3,4-dihydroisoquinolin-2(1H)-yl)-3-(3-(3-methylimidazo[1,5-a]pyridin-6-yl)phenoxy)propan-2-ol] | 1000 to 10000 nM |  | 
16 | Cn1cnc2ccc(-c3ccnc(NC[C@H](O)CN4CCc5ccccc5C4)c3)cc21 [Compound 275] | 1000 to 10000 nM |  | 
17 | Cn1cnc2ccc(-c3ccnc(NC[C@@H](O)CN4CCc5ccccc5C4)c3)cc21 [Compound 276] | 1000 to 10000 nM |  | 
18 | CC(=O)N1CC(Nc2cc(CNCC(O)CN3CCc4ccccc4C3)ncn2)C1 (centres unmarked) [Compound 311] |  | > 10000 nM | 
19 | CC(=O)N1CCC(Nc2cc(CNCC(O)CN3CCc4ccccc4C3)ncn2)CC1 (centres unmarked) [Compound 312] |  | > 10000 nM | 
20 | CC(=O)N1CCC(Nc2cc(CNCC(O)CN3CCc4ccccc4C3)ccn2)CC1 (centres unmarked) [Compound 313] |  | > 10000 nM | 
